Measured values from US5545719A, “Nerve growth peptides” (Neuromedica, Inc., priority 1994, dated 1996).
Values belong to the compound of their own block, whether it stands above or below them. Peptide text beside a SMILES is read from it.

Experiments:
Solubility observations = format: physicochemical; conditions: physiological pH values
NB2a/dl cells = test: Neurite elongation assay (REE), NB2a/dl cells; format: cell-based, mouse; conditions: Conc. 1000 μM, 24 hrs in culture
Protocol: (§1) Two cell lines were used. The mouse neuroblastoma cell line NB2a/dl was grown to confluency in P/100 plastic plates in the presence of Delbecco's medium with 10% fetal calf serum at 36.5° C. in a 5% CO2 atmosphere. Shea, T. B. et al., Dev. Brain Res., 21:307-314 (1985). An adrenergic mouse cell line based on PC12 pheochromocytoma cells was grown on collagen-coated culture plates using 85% RPMI 1640 and 10% heat-inactivated horse serum as the growth medium. Greene, L. A. et al., Proc. Natl. Acad. Sci. USA, 73:2424-2428 (1976). Cultures were grown in P-100 plates from an initial plating of 10^5 cells/ml under sterile conditions using 10 ml of incubation medium. Experimental cultures received a given concentration of protein fragment in 1 ml of serum-free medium. Control cultures received no fragment. […]
(§2) In each of the twelve microscope fields, the length of nerve cell processes (minimum length: 0.5 times the cell body length) was also measured to determine the percentage of nerve elongation after 24 hr. The percentage of total cells that developed a longest process equal to its cell body length was calculated according to the formula in Table V, supra. […]

NB2a/d1 cells = test: Neurite sprouting assay (RSE), NB2a/d1 cells; format: cell-based, mouse; conditions: 24 hrs in culture
Protocol: Two cell lines were used. The mouse neuroblastoma cell line NB2a/dl was grown to confluency in P/100 plastic plates in the presence of Delbecco's medium with 10% fetal calf serum at 36.5° C. in a 5% CO2 atmosphere. Shea, T. B. et al., Dev. Brain Res., 21:307-314 (1985). An adrenergic mouse cell line based on PC12 pheochromocytoma cells was grown on collagen-coated culture plates using 85% RPMI 1640 and 10% heat-inactivated horse serum as the growth medium. Greene, L. A. et al., Proc. Natl. Acad. Sci. USA, 73:2424-2428 (1976). Cultures were grown in P-100 plates from an initial plating of 10^5 cells/ml under sterile conditions using 10 ml of incubation medium. Experimental cultures received a given concentration of protein fragment in 1 ml of serum-free medium. Control cultures received no fragment. Equal numbers of test and control plates were incubated at 35.5° C. in a 95%/5% air/CO2 humified atmosphere, and then examined for neurite growth patterns at 18, 24 and 48 hr after the plating in a phase microscope at a magnification of 100 or 200 ×, as specified.
The test to determine the degree of sprouting was carried out blind to determine (1) the total number of cells present in a given field of observation and (2) the percent of these that have zero and one or two or more process. Twelve microscope fields, each containing 50-100 cells, were randomly selected in each plate and cells counted according to the categories described above. The data for 12 fields in each of two plates for each added protein fragment were combined to obtain an analysis of the percent sprouting (i.e. the % of cells that have one or more processes after 24 hr in culture) for each protein fragment. The ratio, % sprouting in experimental cultures/% sprouting in control cultures, is an index of the "relative sprouting effect" (RSE) of a protein fragment.

PC12 cells [1] = test: Neurite elongation assay (REE), PC12 cells; format: cell-based, mouse
Protocol: as §1, §2

PC12 cells [2] = test: Neurite sprouting assay (RSE), PC12 cells; format: cell-based, mouse; conditions: Conc. .07 μM, 24 hrs in culture
Protocol: as §1
The test to determine the degree of sprouting was carried out blind to determine (1) the total number of cells present in a given field of observation and (2) the percent of these that have zero and one or two or more process. Twelve microscope fields, each containing 50-100 cells, were randomly selected in each plate and cells counted according to the categories described above. […]

solubility in saline (Solubility observations): highly soluble
Compound: CC(C)C[C@H](NC(=O)[C@@H](NC(=O)[C@H](CCC(=O)O)NC(=O)[C@H](CCCCN)NC(=O)[C@@H](N)CCCCN)[C@@H](C)O)C(=O)N[C@@H](CCC(N)=O)C(=O)N[C@@H](Cc1ccccc1)C(=O)N[C@@H](CCCNC(=N)N)C(=O)O [compound 8933, Lys Lys Glu Thr Leu Gln Phe Arg] (H-KKETLQFR-OH)

Compound: CCCC(=O)Nc1ncnc2c1ncn2[C@@H]1O[C@@H]2COP(=O)(O)O[C@H]2[C@H]1OC(=O)CCC [dibutyryl cyclic AMP, reference compound]
REE (neurite elongation) (NB2a/dl cells): 2.58
RSE (relative sprouting effect) (NB2a/d1 cells; Conc. 1000 (μm)): 1.7

Compound: Nerve growth factor
REE (neurite elongation) (PC12 cells [1]; Conc. .03 μM, 24 hrs in culture): 3.30
effect on neurite elongation, result in words (PC12 cells [1]; Table IV): most significant effects
RSE (relative sprouting effect) (PC12 cells [2]): 2.9
RSE (relative sprouting effect) (NB2a/d1 cells; Conc. 0.03 (μm)): 1.76 ± .034
RSE (relative sprouting effect) (NB2a/d1 cells; Conc. .07 (μm)): 1.76 ± .07
